Test results from patent US5180840A, “Process for preparing analogs of artemisinin” (SRI International, priority 1991, dated 1993).
Where two headings read alike, the source gives them in different places.

Tests used:
[1] = tested on: D-6 African P. falciparum clone; test: in vitro testing against P. falciparum, D-6 African clone; type: cell-based
Description: (§1) The analog 1 was sent to Walter Reed Army Institute of Research (WRAIR) for in vitro testing against P. falciparum using modifications of the procedures of Desjardins et al, 1979, and Milhous et al, 1985, (Desjardins, R. E., C. J. Canfield, D. E. Haynes, and J. D. Chulay, Antimicrob. Angents Chemother., Vol. 16, 710-718 (1979); Milhous, W. K., N. F. Weatherly, J. H. Bowdre, and R. E. Desjardins, Antimicrob. Agents Chemother. Vol. 27, 525-530, 1985.) to assess the intrinsic activity of compound 1 as an anti-malarial drug relative to simultaneous known controls such as chloroquine, mefloquine; pyrimethamine, sulfadoxine, tetracycline, qinghaosu or quinine. Since some anti-malarials are more static than cidal in action, it is necessary to extend the incubation period to assess the effects of such drugs on parasite growth rates. In order to insure exponential parasite growth and maximum uptake of radioisotope throughout the extended incubation, reduced starting parasitemias (0.2%) and reduced red cell hematocrits (1.0%) are required. As a result, drugs which are actively incorporated into erythrocytes (such as chloroquine or qinghaosu) will have slightly lower 50% inhibitory concentrations than in other assay systems employing higher red cell hematocrits. Except for the contribution from the 10% normal pooled human plasma and added 10^-10 M (0.014 ng/ml) PABA, the culture medium is folate-free. The trace amount of PABA insures exponential growth of the sulfonamide-susceptible parasite clone without antagonizing the activity of antifol anti-malarials.
(§2) All test compounds are solubilized in DMSO and diluted 400-fold (to rule out a DMSO effect) in culture medium with plasma for a starting concentration of at least 12,500 ng/ml. Drugs are subsequently diluted fivefold using the Cetus Pro/Pette™ system utilizing a range of concentrations from 0.8 ng/ml to 12,500 ng/ml. Fifty percent inhibitory concentrations are reported in ng/ml.
(§3) Table 1 summarizes differences in the susceptibility profiles of the two control P. falciparum clones (Oduola, A. M. J., N. F. Weatherly, J. H. Bowdre, R. E. Desjardins, Thirty-second Annual Meeting, American Society of Tropical Medicine and Hygiene, San Antonio, Tex., Dec. 4-8, 1983) and provides results of testing. The W-2 Indochina P. falciparum clone is resistant to chloroquine, pyrimethamine and sulfadoxine but […]. The D-6 African P. falciparum clone is susceptible to chloroquine, pyrimethamine and sulfadoxine but […].

[2] = tested on: W-2 Indochina P. falciparum clone; test: in vitro testing against P. falciparum, W-2 Indochina clone; type: cell-based; conditions: for IC50: Plasmodium falciparum
Description: as §1, §2, §3

[3] = tested on: D-6 African P. falciparum clone; conditions: D-6 African clone; cited from earlier work
[4] = tested on: W-2 Indochina P. falciparum clone; conditions: W-2 Indochina clone; cited from earlier work
P. falciparum = test: in vitro testing against P. falciparum (two strains together / assay medium); type: cell-based
Description: as §1, with “Except for the contribution from the 10% normal pooled human plasma and added 10^-10 M (0.014 ng/ml) PABA, the culture medium is folate-free. The trace amount of PABA insures exponential growth of the sulfonamide-susceptible parasite clone without antagonizing the activity of antifol anti-malarials.” left out

[5] = Plasmodium falciparum, D-6 African clone (strain head not given; assigned), read-out: IN VITRO ED50 (fifty percent inhibitory concentration)
[6] = Plasmodium falciparum, D-6 African clone (strain head not given; assigned), read-out: IN VITRO ED50 (fifty percent inhibitory concentration), × 10^-9 M

Compound	IC50 [1, 5] [ng/mL]	IC50 [1, 6] [nM]	susceptibility of the clone [3]	susceptibility of the clone [4]	other results
CCN(CC)CCCC(C)Nc1ccnc2cc(Cl)ccc12 (stereo not drawn) [Chloroquine]			susceptible	resistant	IC50 ([1]; Plasmodium falciparum, read-out: IN VITRO ED50 (fifty percent inhibitory concentration), ng/ml): 5.91 ng/mL; IC50 ([1]; Plasmodium falciparum, read-out: IN VITRO ED50 (fifty percent inhibitory concentration), × 10^-9 M): 11.5 nM; IC50 ([2]; read-out: IN VITRO ED50 (fifty percent inhibitory concentration), ng/ml): 26.8 ng/mL; IC50 ([2]; read-out: IN VITRO ED50 (fifty percent inhibitory concentration), × 10^-9 M): 52.1 nM
COc1ncnc(NS(=O)(=O)c2ccc(N)cc2)c1OC [sulfadoxine]			susceptible	resistant	
CCO[C@H]1O[C@@H]2O[C@@]3(C)CC[C@H]4[C@H](C)CC[C@@H]([C@H]1C)[C@@]24OO3 [Arteether]					IN VITRO ED50 (fifty percent inhibitory concentration) ([1]; D-6 African clone (strain head not given; assigned)): 1.87 ng/mL; IC50 ([1]; D-6 African clone (strain head not given; assigned), read-out: IN VITRO ED50 (fifty percent inhibitory concentration), × 10^-9 M): 6 nM; IN VITRO ED50 (fifty percent inhibitory concentration) ([2]; W-2 Indochina clone (strain head not given; assigned)): 1.23 ng/mL
CCc1nc(N)nc(N)c1-c1ccc(Cl)cc1 [pyrimethamine]			susceptible	resistant	

More lines, main results first:

IC50 [1, 5] [ng/mL]	IC50 [1, 6] [nM]	Compound	susceptibility of the clone [3]	susceptibility of the clone [4]	other results
21.1	83	C[C@@]12CC[C@H]3CCC[C@H]4CC(=O)O[C@H](O1)[C@@]34OO2 (relative stereo) [Compound 1, (±)-13,14-desmethylartemisinin]			potency relative to chloroquine ([2]; W-2 Indochina strain): about three times as potent as the classical antimalarial agent chloroquine; activity relative to the natural product Qinghaosu ([2]; W-2 Indochina strain, fraction as active as Qinghaosu): approximately 1/2; antimalarial activity (in words) (P. falciparum; data of Table 1): highly active antimalarial agent; antimalarial potency (P. falciparum; varies with strain, versus the other five compounds): still in the nanogram range
0.47	1.68	C[C@@H]1CC[C@H]2[C@@H](C)C(O)O[C@@H]3O[C@@]4(C)CC[C@@H]1[C@]32OO4 (stereo partly drawn) [Dihydro-quinghaosu]			
3.09	11	C[C@@H]1CC[C@H]2[C@@H](C)C(=O)O[C@@H]3O[C@@]4(C)CC[C@@H]1[C@]32OO4 [Qinghaosu, artemisinin]			
22.2	53.7	OC(c1cc(C(F)(F)F)nc2c(C(F)(F)F)cccc12)C1CCCCN1 (stereo not drawn) [Mefloquine]	resistant	susceptible	
